# Source: patent US10787444B2, “Compounds for the modulation of myc activity” (Syros Pharmaceuticals, Inc., priority 2015, dated 2020)
# Structures can show the parent of a compound that is named as a salt. Where two headings read alike, the source gives them in different places.
# What was measured:
# c-Myc/Max/Ebox DNA = target: T1, c-Myc/Max/Ebox DNA (Homo sapiens, UniProt P01106); experiment: c-Myc/Max/Ebox DNA AlphaScreen Assay; assay type: binding; settings: calculated IC50 class
# T1 construct: his6 (cleaved yes)
# T1 sequence (P01106 whole entry): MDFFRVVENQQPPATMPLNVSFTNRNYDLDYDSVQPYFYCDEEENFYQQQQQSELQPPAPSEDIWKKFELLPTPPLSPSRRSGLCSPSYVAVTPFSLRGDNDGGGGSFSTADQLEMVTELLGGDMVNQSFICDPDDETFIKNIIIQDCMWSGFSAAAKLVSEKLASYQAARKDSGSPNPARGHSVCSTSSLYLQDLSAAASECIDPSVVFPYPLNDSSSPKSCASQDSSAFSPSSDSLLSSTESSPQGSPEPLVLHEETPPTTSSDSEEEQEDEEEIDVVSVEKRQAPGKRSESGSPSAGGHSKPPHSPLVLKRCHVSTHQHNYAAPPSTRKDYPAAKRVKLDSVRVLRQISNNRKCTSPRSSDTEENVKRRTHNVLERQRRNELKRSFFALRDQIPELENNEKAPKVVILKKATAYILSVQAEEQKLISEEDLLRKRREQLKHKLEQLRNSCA
# Summary of the method: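 Compounds were preincubated with free c-Myc (20 nM), biotinylated single-Ebox DNA (10 nM) and Ni acceptor beads before his6-Max (5 nM) and streptavidin donor beads were added. Buffer was 50 mM HEPES pH 8.0, 150 mM NaCl, BSA, Tween20, glycogen and DTT, with DMSO ≤2%. After 2 h incubation, AlphaScreen signal was read at 680 nm excitation and 520–620 nm emission.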
# [1] = test system: human small lung cancer cell line H2171; experiment: Cell Viability Assay (ATPlite); assay type: cell-based; settings: read-out: H2171 Activity
# Summary of the method: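 Viability readout was ATPlite luminescence, taken after 3 days' incubation at 37° C. Human SCLC H2171 cells (20,000 cells/mL) received compound right after plating, as a 10-point dose response.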
# [2] = Homo sapiens, NCI-H2171, 72 h, Table 2, compounds of FIG. 1, H2171 cells, three days, ATPlite, calculated IC50 class
# [3] = Homo sapiens, NCI-H2171, 72 h, Table 3, compounds of FIG. 2, H2171 cells, three days, ATPlite, calculated IC50 class
SMILES,"IC50 (c-Myc/Max/Ebox DNA; Table 2, compounds of FIG. 1) [nM]","IC50 [1, 2] [nM]","IC50 (c-Myc/Max/Ebox DNA; Table 3, compounds of FIG. 2) [nM]","IC50 [1, 3] [nM]",further results
"CC(=O)Nc1sc2c(c1-c1nc3ccccc3s1)CCN(C(C)C)C2 [Compound 200, N-(3-(benzo[d]thiazol-2-yl)-6-isopropyl-4,5,6,7-tetrahydrothieno[2,3-c]pyridin-2-yl)acetamide]",–,–,300 to 1000,–,"IC50 ([1]; Homo sapiens, NCI-H2171, 72 h): 1000 to 10000 nM"
"CCN1CCc2c(sc(NC(C)=O)c2-c2nc3ccccc3s2)C1 [Compound 201, N-(3-(benzo[d]thiazol-2-yl)-6-ethyl-4,5,6,7-tetrahydrothieno[2,3-c]pyridin-2-yl)acetamide]",–,–,1000 to 10000,–,"IC50 ([1]; Homo sapiens, NCI-H2171, 72 h): 1000 to 10000 nM"
"CC(=O)Nc1sc2c(c1-c1nc3cc(C(F)(F)F)ccc3s1)CCNC2 [Compound 204, N-(3-(5-(trifluoromethyl)benzo[d]thiazol-2-yl)-4,5,6,7-tetrahydrothieno[2,3-c]pyridin-2-yl)acetamide]",–,–,1000 to 10000,1000 to 10000,–
"CC(=O)Nc1sc2c(c1-c1nc3ccccc3s1)C(C)CNC2 (stereo not drawn) [Compound 205, N-(3-(benzo[d]thiazol-2-yl)-4-methyl-4,5,6,7-tetrahydrothieno[2,3-c]pyridin-2-yl)acetamide]",–,–,> 10000,> 10000,–
"CC(=O)Nc1sc2c(c1-c1nc3ccccc3s1)C(F)CNC2 (stereo not drawn) [Compound 217, N-(3-(benzo[d]thiazol-2-yl)-4-fluoro-4,5,6,7-tetrahydrothieno[2,3-c]pyridin-2-yl) acetamide]",–,–,> 10000,< 300,–
"CC(=O)Nc1sc2c(c1-c1nc3ccccc3s1)C[C@@H](C)N[C@H]2C [Compound 218, N-((5R,7S)-3-(benzo[d]thiazol-2-yl)-5,7-dimethyl-4,5,6,7-tetrahydrothieno[2,3-c]pyridin-2-yl)acetamide]",–,–,1000 to 10000,–,"IC50 ([1]; Table 3, compounds of FIG. 2, H2171 cells, three days, ATPlite, calculated IC50 class): < 300 nM"
"CC(=O)Nc1sc2c(c1-c1nc3ccccc3s1)C[C@H](C)N[C@@H]2C [Compound 219, N-((5S,7R)-3-(benzo[d]thiazol-2-yl)-5,7-dimethyl-4,5,6,7-tetrahydrothieno[2,3-c]pyridin-2-yl)acetamide]",–,–,1000 to 10000,< 300,–
"CC(=O)Nc1sc2c(c1-c1nc3ccccc3s1)C(F)CN(C(C)C)C2 (stereo not drawn) [Compound 220, N-(3-(benzo[d]thiazol-2-yl)-4-fluoro-6-isopropyl-4,5,6,7-tetrahydrothieno[2,3-c]pyridin-2-yl) acetamide]",–,–,1000 to 10000,–,"IC50 ([1]; Homo sapiens, NCI-H2171, 72 h): > 10000 nM"
"CC(=O)Nc1sc2c(c1-c1nc3ccccc3s1)CCC(N)C2 (stereo not drawn) [Compound 221, N-(6-amino-3-(benzo[d]thiazol-2-yl)-4,5,6,7-tetrahydrobenzo[b]thiophen-2-yl)acetamide]",–,–,> 10000,> 10000,–
"CC(=O)Nc1sc2c(c1-c1nc3ccccc3s1)CCC(N(C)C)C2 (stereo not drawn) [Compound 223, N-(3-(benzo[d]thiazol-2-yl)-6-(dimethylamino)-4,5,6,7-tetrahydrobenzo[b]thiophen-2-yl)acetamide]",–,–,1000 to 10000,> 10000,–

# The next lines start with results.
"IC50 (c-Myc/Max/Ebox DNA; Table 2, compounds of FIG. 1) [nM]","IC50 [1, 2] [nM]","IC50 (c-Myc/Max/Ebox DNA; Table 3, compounds of FIG. 2) [nM]","IC50 [1, 3] [nM]",SMILES,further results
300 to 1000,< 300,–,–,"CC[C@H](C)NCCC(=O)Nc1sc2c(c1-c1nc3ccccc3s1)CCNC2 [Compound 154, (S)—N-(3-(benzo[d]thiazol-2-yl)-4,5,6,7-tetrahydrothieno[2,3-c]pyridin-2-yl)-3-(sec-butylamino) propanamide]",–
< 300,< 300,–,–,"CC(C)N1CCc2c(sc(NC(=O)CCNCc3cn[nH]c3)c2-c2nc3ccccc3s2)C1 [Compound 155, 3-(((1H-pyrazol-4-yl)methyl)amino)-N-(3-(benzo[d]thiazol-2-yl)-6-isopropyl-4,5,6,7-tetrahydrothieno[2,3-c]pyridin-2-yl)propanamide]",–
< 300,< 300,–,–,"CC[C@H](C)NCCC(=O)Nc1sc2c(c1-c1nc3cc(F)ccc3s1)CCNC2 [Compound 156, (S)-3-(sec-butylamino)-N-(3-(5-fluorobenzo[d]thiazol-2-yl)-4,5,6,7-tetrahydrothieno[2,3-c]pyridin-2-yl)propanamide hydrochloride]",–
300 to 1000,300 to 1000,–,–,"CC(C)NCCC(=O)Nc1sc2c(c1-c1nc3cc(-c4ccncc4)ccc3s1)CCNC2 [Compound 160, 3-(Isopropylamino)-N-(3-(5-(pyridin-4-yl)benzo[d]thiazol-2-yl)-4,5,6,7-tetrahydrothieno[2,3-c]pyridin-2-yl)propanamide dihydrochloride]",–
< 300,< 300,–,–,"CC(C)NCCC(=O)Nc1sc2c(c1-c1nc3cc(-n4ccnc4)ccc3s1)CCNC2 [Compound 178, N-(3-(5-(1H-imidazol-1-yl)benzo[d]thiazol-2-yl)-4,5,6,7-tetrahydrothieno[2,3-c]pyridin-2-yl)-3-(isopropylamino)propanamide dihydrochloride]",–
< 300,< 300,–,–,"CC[C@@H](C)NCCC(=O)Nc1sc2c(c1-c1nc3cc(C(F)(F)F)ccc3s1)CCNC2 [Compound 179, (R)-3-(sec-butylamino)-N-(3-(5-(trifluoromethyl)benzo[d]thiazol-2-yl)-4,5,6,7-tetrahydrothieno[2,3-c]pyridin-2-yl)propanamide]",–
< 300,< 300,–,–,"CC[C@@H](C)NCCC(=O)Nc1sc2c(c1-c1nc3cc(F)ccc3s1)CCNC2 [Compound 185, (R)-3-(sec-butylamino)-N-(3-(5-fluorobenzo[d]thiazol-2-yl)-4,5,6,7-tetrahydrothieno[2,3-c]pyridin-2-yl)propanamide]",–
< 300,< 300,–,–,"COCCNCCC(=O)Nc1sc2c(c1-c1nc3cc(F)ccc3s1)CCNC2 [Compound 189, N-(3-(5-fluorobenzo[d]thiazol-2-yl)-4,5,6,7-tetrahydrothieno[2,3-c]pyridin-2-yl)-3-((2-methoxyethyl)amino)propanamide]",–
< 300,< 300,–,–,"O=C(CCNCc1c[nH]cn1)Nc1sc2c(c1-c1nc3ccccc3s1)CCNC2 [Compound 190, 3-(((1H-imidazol-4-yl)methyl)amino)-N-(3-(benzo[d]thiazol-2-yl)-4,5,6,7-tetrahydrothieno[2,3-c]pyridin-2-yl)propanamide]",–
< 300,1000 to 10000,–,–,"CCC(C)NCCC(=O)Nc1sc2c(c1-c1nc3ccccc3s1)CC[N+](C)(C(C)C)C2 (stereo not drawn) [Compound 191, 3-(benzo[d]thiazol-2-yl)-2-(3-(sec-butylamino)propanamido)-6-isopropyl-6-methyl-4,5,6,7-tetrahydrothieno[2,3-c]pyridin-6-ium]",–
1000 to 10000,1000 to 10000,–,–,"CCC(=O)NCCC(=O)Nc1sc2c(c1-c1nc3ccccc3s1)CCNC2 [Compound 199, N-(3-(benzo[d]thiazol-2-yl)-4,5,6,7-tetrahydrothieno[2,3-c]pyridin-2-yl)-3-propionamidopropanamide]",–
–,–,1000 to 10000,< 300,"CC(=O)Nc1sc2c(c1-c1nc3ccccc3s1)CCNC2 [Compound 202, N-(3-(benzo[d]thiazol-2-yl)-4,5,6,7-tetrahydrothieno[2,3-c]pyridin-2-yl)acetamide]",–
–,–,1000 to 10000,1000 to 10000,"CC(=O)Nc1sc2c(c1-c1nc3cc(F)ccc3s1)CCNC2 [Compound 203, N-(3-(5-fluorobenzo[d]thiazol-2-yl)-4,5,6,7-tetrahydrothieno[2,3-c]pyridin-2-yl)acetamide]",–
–,–,300 to 1000,> 10000,"CC(=O)Nc1sc2c(c1-c1nc3ccc(C)cc3s1)CCNC2 [Compound 224, N-(3-(6-methylbenzo[d]thiazol-2-yl)-4,5,6,7-tetrahydrothieno[2,3-c]pyridin-2-yl)acetamide]",–
